Measurements as given in patent US20250041313A1, “COMBINATION THERAPY FOR TREATMENT OF CANCER” (CITY OF HOPE, priority 2023, published 2025).
Like-named read-outs stand apart in the source and are kept apart here.

Tests used:
H69 cells = assay: CCK-8 cytotoxicity assay, 72 h; type: cell-based; conditions: Homo sapiens, NCI-H69
Text: (§1) We have determined cell cytotoxicity toward a specific drug, employing Cell Counting Kit-8 (Dojindo Molecular Technologies, Rockville, MD) as previously described (15).
(§2) The expression levels of DRP1 and DHODH in SCLC lines were compared with non-malignant BEAS 2B cells. Elevated levels of DRP1 and pDRP1 at Ser^616 were detected in all tested SCLC cells. Higher expression of DHODH was also observed in all seven SCLC cell lines (FIG. 1C). Previous studies have shown that Leflu and its active metabolite Teri regulate mitochondrial morphology (9,10,26). To find the effects of these two drugs on DRP1, AA docking (27) method was used to search for the best binding pocket for inhibitor binding. […] Leflu has a medium docking score of −5.6 kcal/mol. […] In vitro cytotoxicity effect of Teri and Leflu was tested in a panel of SCLC cell lines. Ten SCLC cell lines were treated with increasing concentrations of each drug for 72 h. […] In contrast, IC50 doses were much higher for Leflu. Upon oral administration of Leflu, over 80% of the drug is converted to Teri (28), indicating a potential reason for higher sensitivity to Teri. Two cell lines, SBC3 and SBC5, with IC50 2 μM and 30 μM, respectively, for Teri were used for additional experiments. […] The inhibitory effect was higher with Teri in both cell lines (FIG. 2A).

H345 cells = assay: CCK-8 cytotoxicity assay, 72 h; type: cell-based; conditions: Homo sapiens, NCI-H345
Text: as §1, §2

DMS114 cells = assay: CCK-8 cytotoxicity assay, 72 h; type: cell-based; conditions: Homo sapiens, DMS-114
Text: as §1, §2

H82 cells = assay: CCK-8 cytotoxicity assay, 72 h; type: cell-based; conditions: Homo sapiens, NCI-H82
Text: as §1, §2

H526 cells = assay: CCK-8 cytotoxicity assay, 72 h; type: cell-based; conditions: Homo sapiens, NCI-H526
Text: as §1, §2

SBC3 xenograft = assay: SBC3 mouse xenograft, Lur/Leflu study; type: in vivo; conditions: for tumor weight at end of study: Lur 0.5 mg/kg, Leflu 3.8 mg/kg, i.p. twice a week; for reduction in tumor size/weight: vs control
Method: Athymic nude nu/nu mice were obtained from Charles River, Wilmington, MA, and were acclimated for a week before beginning the experiment. All animal experiments were carried out in accordance with a protocol approved by the Institutional Animal Care and Use Committee COH (IACUC #16004). For treatments, mice were divided into 4 groups with five mice per group and subcutaneously injected into one flank with 2×10^6 SBC3 or SBC5 cells suspensions in 100 μl of PBS. Treatment started on the 14th day when tumors became palpable. Two in vivo studies were done in this project. SBC3 and SBC 5 xenograft with i) vehicle control, ii) […] 50 mg/kg, iii) Leflu 7.5 mg/kg, and iv) […]/Leflu. SBC3 with i) vehicle control, ii) Lur 0.5 mg/kg, iii) Leflu 3.8 mg/kg, and iv) Lur/Leflu. Treatments were given to mice via i.p. twice a week for 6 weeks. Animals were examined daily for signs of tumor growth. Tumors were measured in two dimensions using calipers and body weights were recorded. Animals were photographed on days 1, 5, 10, 15, 20, 25, 30, 35, and 40 after treatment. Tumors were removed on day 40 and photographed. At the end of the study, the mice were euthanized by CO2 asphyxiation followed by cervical dislocation. The tumor weights were compared between groups using an unpaired Student's t-test. A portion of the tumor was fixed in 10% buffered formaldehyde solution and paraffin-embedded for immuno-staining. FFPE tumor sections were stained with pDRP Ser^616 antibody. Tumor sections were deparaffinized and rehydrated, followed by heat-mediated antigen retrieval (pH 6, Dako). After permeabilization and blocking, tumor sections were stained with pDRP1 Ser^616 antibody overnight, washed and incubated with Alexa 488 secondary antibody for one hour, mounted and observed on an LSM 880 with a 10×/0.45 NA objective (Carl Zeiss). Immunofluorescent confocal images were acquired for each treatment (magnification:100×). Mean immunofluorescence intensities were calculated with ZEN 2.3 Lite software.

SBC5 cells = assay: CCK-8 cell viability/cytotoxicity assay, 72 h; type: cell-based, human
Method: (§3) The expression levels of DRP1 and DHODH in SCLC lines were compared with non-malignant BEAS 2B cells. […] Previous studies have shown that Leflu and its active metabolite Teri regulate mitochondrial morphology (9,10,26). […] In vitro cytotoxicity effect of Teri and Leflu was tested in a panel of SCLC cell lines. Ten SCLC cell lines were treated with increasing concentrations of each drug for 72 h.
(§4) Isobologram and CI50 values were calculated using the Chou-Talalay method and IC50 to find synergism (FIG. 3B).

SBC3 cells = assay: CCK-8 cell viability/cytotoxicity assay, 72 h; type: cell-based, human; conditions: Homo sapiens, SBC-3
Method: as §3, §4

H446 spheroids [1] = assay: Spheroid ATP assay (Cell titer glo); type: cell-based, human; conditions: 72 h, Teri 1600 nM, Lur 1600 pM, Teri/Lur 1600 nM/pM
Method: Cell titer glo/ATP assay (Promega, Madison, WI) was used for ATP measurement in spheroids. After 72 h of drug treatments, intracellular spheroid's ATP concentration was measured by luminescence following the manufacturer protocol using Tecan Spark 10 plate reader.

H446 spheroids [2] = assay: Spheroid MitoSOX assay (mitochondrial superoxide); type: cell-based, human; conditions: increase after 40 h
Method: The IncuCyte system recorded two days MitoSOX red dye (Thermo Fisher Scientific, Waltham, MA) penetration in live H446 spheroids. Spheroids were labeled with 5 μM of dye and red fluorescence was assessed by IncuCyte software. Fluorescence and brightfield images were acquired on an Axio Observer 7 (Carl Zeiss, Jena, Germany) inverted microscope, equipped with a 10×/0.45 NA Plan-Apochromat objective, TL halogen lamp, Colibri 7, filter set 90 HE, and captured on a Zeiss Axiocam 702 CMOS camera. Exposure times and wavelengths were 15 ms (red fluorescence), 9.4 ms (brightfield), BP 555/30 excitation filter, and QBP 592/25 emission filter.

[3] = SBC3 cells, 72 h, read-out: IC50

Structure (SMILES) | IC50 (H69 cells) [µM] | IC50 (H345 cells) [µM] | IC50 (DMS114 cells) [µM] | IC50 (H82 cells) [µM] | IC50 (H526 cells) [µM] | tumor weight at end of study (SBC3 xenograft) [g] | reduction in tumor size/weight (SBC3 xenograft) [%] | IC50 (SBC5 cells; Homo sapiens, SBC-5, 72 h) [µM] | IC50 (SBC3 cells; [3]) [µM] | ATP level compared with the control (H446 spheroids [1]) | mitochondrial superoxide levels (MitoSOX) (H446 spheroids [2]) | IC50 (SBC5 cells) [µM] | IC50 (SBC3 cells; SBC3, CCK-8 72 h, fixed concentrations of Teri and Carbo, read-out: IC50, single treatment and combination treatment) [µM]
Cc1oncc1C(=O)Nc1ccc(C(F)(F)F)cc1 [Leflunomide, leflunomide] | > 152 | > 152 | > 152 | 103 | 48.3 | 1.39 ± 0.12 | ~22 | 108 | 8.9 |  |  |  | 
COc1ccc2[nH]c3c(c2c1)CCN[C@]31CS[C@@H]2c3c(OC(C)=O)c(C)c4c(c3[C@H](COC1=O)N1[C@@H]2[C@H]2c3c(cc(C)c(OC)c3O)C[C@@H]([C@@H]1O)N2C)OCO4 [Lurbinectedin, lurbinectedin] |  |  |  |  |  | 1.09 ± 0.11 | ~39 |  |  | ~60% | unaffected |  | 
C/C(O)=C(\C#N)C(=O)Nc1ccc(C(F)(F)F)cc1 [Teriflunomide, teriflunomide] | 17.1 | > 43.7 | 12.6 | 7.2 | 7.6 |  |  | 30 | 2 | approximately 80% | unaffected | 33 | 4.24
